The nature of data set [1]: NOVARTIS: Cytotoxicity against human hepatocellular carcinoma cell line (Huh7). The class given is toxicity, cell-based, Huh-7. Conditions: Huh7 cells (hepatocellular carcinoma cell line).
Data set [2] relates to Plasmodium falciparum. Put plainly: NOVARTIS: Inhibition of Plasmodium falciparum 3D7 (drug-susceptible) proliferation in erythrocyte-based infection assay. The data set is classed as functional, organism-based. Conditions: Plasmodium falciparum, 3D7.
For data set [3], the system named is Plasmodium falciparum. Put plainly: NOVARTIS: Inhibition of Plasmodium falciparum W2 (drug-resistant) proliferation in erythrocyte-based infection assay. The data set is classed as functional, organism-based. The note with it: Plasmodium falciparum, W2; read-out: EC50.

With `CCOC(=O)c1nc2nc(C)cc(O)n2n1`, the CC50 (usually the concentration at which the toxic effect on the cells reaches its halfway point) in data set [1] is over 10000 nM. Besides, the figures for the EC50 in the data set on Plasmodium falciparum [2] and with Plasmodium falciparum [3] were over 739 nM and over 940 nM, respectively.
`CO[C@H]1[C@@H](C)[C@@H]([C@H](C)C2O[C@@]3(CC[C@@](C)([C@H]4CC[C@@](C)([C@@H]5O[C@@H]([C@H]6O[C@](C)(O)[C@H](C)C[C@@H]6C)C[C@@H]5C)O4)O3)C[C@H](O)[C@@H]2C)O[C@@](O)([C@H](C)C(=O)O)[C@H]1C` (some centres undefined): in data set [1], the CC50 is over 10000 nM. The EC50 (usually the concentration that produces a half-maximal response) with Plasmodium falciparum [2] came out at 1140 nM; with Plasmodium falciparum [3], 938 nM.
In the same order, the values of `Cc1cccc(-n2c(-c3ccccc3)nc3ccc(-c4ccc5nc(-c6ccccc6)n(-c6cccc(C)c6)c(=O)c5c4)cc3c2=O)c1` are over 10000 nM, over 1200 nM and over 939 nM.
With `Cc1cc2nc(NC(=N)N)nc(C)c2cc1C`, in data set [1], the CC50 was over 100000 nM. Moreover, the figures for the EC50 with Plasmodium falciparum [2] and in the data set with Plasmodium falciparum [3] were 2660 nM and over 9300 nM, respectively.
Taken in the same sequence, the figures for `CCOC(=O)C1=C(C)N=c2sc(=Cc3cccc(OCc4cccc5ccccc45)c3)c(=O)n2C1c1ccc(OC)cc1OC` (centres undefined) were over 100000 nM, over 12500 nM and over 9270 nM.
For `Oc1ccc(Nc2nc(N3CCCC3)c3ccccc3n2)cc1`, in data set [1], the CC50 was over 10000 nM. The EC50 stood at 584 nM with Plasmodium falciparum [2] and 926 nM in the data set with Plasmodium falciparum [3].
Take `CCCCNC(=O)N(CCCC(C)Nc1cc(OC)cc2cccnc12)Cc1ccc(OC)c(OC)c1` (centres undefined): in data set [1], the CC50 was over 4470 nM. Also, the EC50 with Plasmodium falciparum [2] was 1260 nM; in the data set on Plasmodium falciparum [3] it was 422 nM.
`CCOC(=O)c1cnn(-c2ccnc3cc(Cl)ccc23)c1CNC(C)c1cccs1` (centres undefined) gave a CC50 in data set [1] of over 10000 nM. Further, the EC50 with Plasmodium falciparum [2] is over 1560 nM; in the data set with Plasmodium falciparum [3] it was over 944 nM.
In data set [1], `Cc1cc(Nc2ccc(C)c(Cl)c2)n2ncnc2n1` showed a 50% cytotoxic concentration (CC50) of over 10000 nM. In addition, the values for the EC50 in the data set on Plasmodium falciparum [2] and in the data set on Plasmodium falciparum [3] were 1400 nM and over 927 nM, respectively.
In turn, `CCCCCOc1ccc(/C=C2/N=C(c3ccccc3)OC2=O)cc1` had a CC50 in data set [1] of over 10000 nM. Also, the EC50 was over 116 nM in the data set on Plasmodium falciparum [2] and over 944 nM with Plasmodium falciparum [3].
Compound `COCCNC(=O)c1ccc2c(=O)n(Cc3ccc4c(c3)OCO4)c(=S)[nH]c2c1` had a CC50 in data set [1] of over 10000 nM. Also, the results for the 50% effective concentration (EC50) with Plasmodium falciparum [2] and in the data set on Plasmodium falciparum [3] were over 533 nM and 943 nM, respectively.
As for `CCOC(=O)C1=C(C)N/C(=C\c2cc(C)n(-c3cccc(Br)c3)c2C)C1=O`, the CC50 in data set [1] was over 10000 nM. For the same compound, the EC50 is over 1250 nM in the data set on Plasmodium falciparum [2] and over 926 nM in the data set on Plasmodium falciparum [3].
Compound `CC(Cc1ccccc1)NCCCCCNC(C)Cc1ccccc1` (centres undefined) registered a CC50 in data set [1] of 5320 nM. Also, the EC50 with Plasmodium falciparum [2] came out at 238 nM; with Plasmodium falciparum [3], 503 nM.
Consider `COc1cc(Br)c(/C=C2\Sc3ccccc3C2=O)cc1OC`, for which the CC50 in data set [1] is over 10000 nM. The EC50 is over 1250 nM in the data set on Plasmodium falciparum [2] and over 925 nM in the data set on Plasmodium falciparum [3].
In data set [1], `Cc1ccc([N+](=O)[O-])cc1-c1ccc(/C=C2/SC(=S)N(CC(=O)O)C2=O)o1` gave a cytotoxic concentration (CC50) of over 10000 nM. Moreover, the EC50 in the data set with Plasmodium falciparum [2] was over 1250 nM; in the data set on Plasmodium falciparum [3], over 940 nM.
Turning to `COc1cccc(-c2ccc(O)c(CNCc3ccccc3OC)c2)n1`, the CC50 in data set [1] is over 10000 nM. In addition, the EC50 in the data set with Plasmodium falciparum [2] was 1090 nM; with Plasmodium falciparum [3] it was 939 nM.
For the compound `CC(=O)Nc1ccc(C(=O)N2CCC(Oc3cccc(CN(C)Cc4cccc5ccccc45)c3)CC2)cc1`, the half-maximal cytotoxic concentration (CC50) in data set [1] was over 10000 nM. For the same compound, the values for the EC50 in the data set on Plasmodium falciparum [2] and in the data set on Plasmodium falciparum [3] were over 1250 nM and 945 nM, respectively.
`COc1cc(C=NNC(=O)c2ccco2)ccc1OCc1ccc([N+](=O)[O-])cc1` had a CC50 in data set [1] of over 10000 nM. Moreover, the figures for the concentration giving a half-maximal response (EC50) in the data set on Plasmodium falciparum [2] and with Plasmodium falciparum [3] were over 1250 nM and over 941 nM, respectively.
As for `C=CCOc1cccc(/C=C2/NC(C)=C(C(=O)OCC)C2=O)c1`, the CC50 in data set [1] is over 10000 nM. The EC50 was over 1040 nM with Plasmodium falciparum [2] and over 933 nM in the data set with Plasmodium falciparum [3].
On to `CC1CCC(Nc2ccnc3cc(Cl)ccc23)CC1` (centres undefined), for which the CC50 in data set [1] was over 10000 nM. The EC50 in the data set on Plasmodium falciparum [2] was 843 nM; in the data set with Plasmodium falciparum [3], 933 nM.
For `O=C(COC(c1ccccc1)c1cccnc1)NCCNC(=O)OCc1ccccc1` (centres undefined), in data set [1], the CC50 was over 10000 nM. The EC50 in the data set with Plasmodium falciparum [2] was 967 nM; with Plasmodium falciparum [3] it was 941 nM.
`CCOc1ccc(CN(C(=O)C(C)(C)CCl)C(C)CCCN(CC)CC)cc1` (centres undefined) displayed a cytotoxic concentration (CC50) in data set [1] of over 10000 nM. Also, the half-maximal effective concentration (EC50) was over 878 nM with Plasmodium falciparum [2] and 941 nM with Plasmodium falciparum [3].
`COc1cc(NC(C)CCCN(Cc2ccccc2OC)S(=O)(=O)c2ccc(Br)cc2)c2ncccc2c1` (centres undefined) showed a half-maximal cytotoxic concentration (CC50) in data set [1] of 4580 nM. The EC50 with Plasmodium falciparum [2] was found to be 945 nM; in the data set with Plasmodium falciparum [3], 427 nM.
`Cc1cccc(NC(=O)/C(C#N)=C/c2ccc(C)o2)c1` displayed a CC50 in data set [1] of over 10000 nM. In addition, the EC50 in the data set on Plasmodium falciparum [2] is over 1250 nM; with Plasmodium falciparum [3], over 934 nM.
In the same order, the values of `CCCOc1ncnc2c1sc1nc3c(cc12)COC(C)(C)C3` are over 10000 nM, over 967 nM and over 936 nM.
Taken in the same sequence, the figures for `CCCCN(C(=O)Nc1ccc(OCC)cc1)C(C)c1nc2ccccc2c(=O)n1-c1ccc(F)c(Cl)c1` (centres undefined) were over 10000 nM, 1010 nM and 935 nM.
For the compound `Cn1c(=O)c2c(ncn2CC(O)CN=C2CCCCN2)n(C)c1=O` (centres undefined), the CC50 in data set [1] was over 10000 nM. Further, the EC50 is over 1250 nM with Plasmodium falciparum [2] and over 933 nM in the data set on Plasmodium falciparum [3].
Taken in the same sequence, the figures for `COc1ccc(NS(=O)(=O)c2cccc(C(=O)Nc3ccccc3[N+](=O)[O-])c2)cc1` were 44400 nM, over 12500 nM and 4130 nM.
In the same order, the values of `N#C/C(=C\n1cc(Cc2ccc(Cl)cc2Cl)c2ccccc21)c1nn(CCO)c(N)c1C#N` are over 10000 nM, 913 nM and 929 nM.
As to `CCN(CC)CCCN(Cc1cc2ccc(OC)cc2[nH]c1=O)C(=S)NCc1ccccc1`, it took 25800 nM to reach half-maximal cytotoxicity in data set [1] (CC50). Moreover, the EC50 with Plasmodium falciparum [2] was 3910 nM; in the data set with Plasmodium falciparum [3], 2410 nM.
In the same order, the values of `O=C(Nc1ccccc1Cl)C1CCCN1C(=O)OCc1ccccc1` (centres undefined) are over 10000 nM, over 1250 nM and over 929 nM.
In the case of `CCn1c(SCCCCNC(=O)c2cc([N+](=O)[O-])cc([N+](=O)[O-])c2)nc(-c2ccccc2)c1-c1ccccc1`, the midpoint of cytotoxicity in data set [1], the CC50, lay at 6520 nM. Moreover, the EC50 with Plasmodium falciparum [2] is 724 nM; in the data set with Plasmodium falciparum [3], 612 nM.
As to `O=C(NN=Cc1cc2ccccc2cc1O)c1cccnc1`, the CC50 in data set [1] was over 10000 nM. Also, the EC50 in the data set with Plasmodium falciparum [2] stood at 871 nM; in the data set on Plasmodium falciparum [3] it was 946 nM.
For the compound `Fc1ccc(CSc2ccc3nnc(-c4cccnc4)n3n2)cc1`, the CC50 in data set [1] was over 10000 nM. Further, the EC50 in the data set on Plasmodium falciparum [2] was over 1250 nM; with Plasmodium falciparum [3] it was over 937 nM.
Taken in the same sequence, the figures for `CCn1c(SCCNC(=O)CC(C)C)nc(-c2ccccc2)c1-c1ccccc1` were over 9920 nM, over 1250 nM and over 922 nM.
Taken in the same sequence, the figures for `O=C(COc1cccc(Cl)c1)Nc1nccs1` were over 100000 nM, over 12500 nM and over 9290 nM.
In the same order, the values of `Cc1cc(C)c2nc(SCC(=O)Nc3ccc4c(c3)OCCO4)cc(C)c2c1` are over 10000 nM, over 1250 nM and over 942 nM.
Take `CC(C)(C)CC(C)(C)c1ccc(OCC(=O)NN=C2C(=O)Nc3ccccc32)c([N+](=O)[O-])c1`: in data set [1], the CC50 was over 10000 nM. Also, the EC50 in the data set with Plasmodium falciparum [2] is over 1000 nM; in the data set with Plasmodium falciparum [3], 927 nM.

The record behind these values is ChEMBL document CHEMBL1156829 (Proc Natl Acad Sci U S A, 2008).
